Reference: ChEMBL document CHEMBL1201862, “PubChem BioAssay data set” (2004)
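Method: 48-hour compound exposure of cells in 96-well plates, five concentrations, linear interpolation of endpoints. GI50: concentration for 50% inhibition of growth.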 Activity calls are given as the source filed them. No stated cut-off is given here; in the data, active = GI50 up to about 1.1 µM and inactive = higher.

Experiments:
Test in all cases: NCI-60 cell line screen, 48 h
A498 = tested on: A498
CCRF-CEM = tested on: CCRF-CEM
HL-60 = tested on: HL-60
HOP-62 = tested on: HOP-62
HOP-92 = tested on: HOP-92
LOX IMVI = tested on: LOX IMVI
LXFL 529 = tested on: LXFL 529
Malme-3M = tested on: Malme-3M
NCI-H460 = tested on: NCI-H460
OVCAR-4 = tested on: OVCAR-4
RPMI-8226 = tested on: RPMI-8226
RXF 393 = tested on: RXF 393
SF-268 = tested on: SF-268
SF-539 = tested on: SF-539
SR = tested on: SR
TK-10 = tested on: TK-10
UACC-257 = tested on: UACC-257
UO-31 = tested on: UO-31

Measured: GI50

Cc1cccc(O)c(=O)c1
inactive: A498 54 µM | CCRF-CEM 3.48 µM | HL-60 3.44 µM | HOP-62 39.2 µM | HOP-92 89.3 µM | LOX IMVI 7.03 µM | LXFL 529 29.9 µM | Malme-3M 31 µM | NCI-H460 31.7 µM | OVCAR-4 45.8 µM | RPMI-8226 7.6 µM | RXF 393 > 100 µM | SF-268 21.2 µM | SF-539 29.6 µM | SR 15.2 µM | TK-10 29.2 µM | UACC-257 28.3 µM | UO-31 73.3 µM

COC(=O)CCC(=O)C(CC(=O)OC)C(=O)CCC(=O)NCCc1ccccc1 (stereo unspecified)
inactive: A498 > 100 µM | CCRF-CEM > 100 µM | HL-60 > 100 µM | HOP-62 > 100 µM | HOP-92 > 100 µM | LOX IMVI > 100 µM | LXFL 529 > 100 µM | Malme-3M > 100 µM | NCI-H460 > 100 µM | OVCAR-4 > 100 µM | RPMI-8226 > 100 µM | RXF 393 > 100 µM | SF-268 > 100 µM | SF-539 > 100 µM | SR > 100 µM | TK-10 > 100 µM | UACC-257 > 100 µM | UO-31 > 100 µM

N=c1n(CC(=O)NC23CC4CC(CC(C4)C2)C3)c2ccccc2n1CC(=O)NC12CC3CC(CC(C3)C1)C2
inactive: A498 1.7 µM | CCRF-CEM 2.8 µM | HL-60 2.67 µM | HOP-62 2.02 µM | HOP-92 1.65 µM | LOX IMVI 1.63 µM | LXFL 529 2.04 µM | Malme-3M 1.67 µM | NCI-H460 1.78 µM | OVCAR-4 1.79 µM | RPMI-8226 2.21 µM | RXF 393 1.75 µM | SF-268 1.95 µM | SF-539 1.92 µM | SR 1.87 µM | TK-10 1.66 µM | UACC-257 1.73 µM | UO-31 13.2 µM

Cc1cc(C)c(C(=O)c2no[n+]([O-])c2C(=O)c2c(C)cc(C)c(Br)c2C)c(C)c1Br
inactive: A498 17.6 µM | CCRF-CEM 2.59 µM | HL-60 3.35 µM | HOP-62 18.2 µM | HOP-92 6.19 µM | LXFL 529 11.2 µM | Malme-3M 14 µM | NCI-H460 14.2 µM | OVCAR-4 10.2 µM | RPMI-8226 10.2 µM | RXF 393 6.05 µM | SF-268 11.5 µM | SF-539 15.5 µM | SR 4.27 µM | TK-10 9.31 µM | UACC-257 > 10 µM | UO-31 7.67 µM
